The values below come from patent US20240041899A1, “SOLID PREPARATION” (ASKA Pharmaceutical Co., Ltd., priority 2020, published 2024).

The structures appear in SMILES notation.

The subject of series [1] is lower urinary tract obstruction model of rats (female). Briefly: Test Example 1: urination function in lower urinary tract obstruction model of female rats. Format: in vivo. The note with it: oral once a day 2 weeks, Compound A 10 mg/kg. From the text:
A lower urinary tract obstruction model of rats was used as a test system. A test substance was orally administered to the lower urinary tract obstruction model repeatedly over two (2) weeks to examine the action on the urination function in the lower urinary tract obstruction model.
More specifically, the rats (female, Crl:CD(SD), 8-week-old; Charles River Laboratories Japan, Inc.) were operated to form lower urinary tract obstruction and repeatedly received oral administration of the test substance at a frequency of once a day over two (2) weeks. After the completion of the administration, each rat was subjected to bladder catheterization under anesthesia, cystometry under no anesthesia, then cystometry under urethane anesthesia, and euthanasia under deep anesthesia, and the tissues (bladder, kidney) of the rat were extracted or surgically removed. As a normal group, the rats without operation for forming lower urinary tract obstruction were used.
The test system, the test substances, and the dosage are as follows. • Normal group: 0.5 v/v % Polysorbate 80 solution, 10 mL/kg (n=6) • Solvent group (control group): 0.5 v/v % Polysorbate 80 solution, 10 mL/kg (n=15) • Group A: Compound A, 10 mg/kg (n=15) • Group B3: Compound B, 3 mg/kg (n=7) • Group B10: Compound B, 10 mg/kg (n=7)
After urination, the residual urine was aspirated from the outlet end of the catheter placed in the bladder to measure the volume (mL) of the residual urine.
After urination, the weight of the voided urine was measured to determine the voided volume (g=mL), and then the urination efficiency was calculated by the following equation: Urination efficiency (%)=[(Voided volume (mL))/(Voided volume (mL)+Residual urine volume (mL))]×100
Bladder capacity (mL)=Voided volume (mL)+Residual urine volume (mL)
Moreover, the wet weight of the extracted bladder and that of the extracted kidney were measured.

Series [2] deals with lower urinary tract obstruction model of rats (male). Kind of series: Test Example 2: urination function in lower urinary tract obstruction model of male rats. Format: in vivo. The note with it: oral once a day 14 days, 10 mg/kg, in comparison with Group C (dutasteride 0.5 mg/kg). From the text: A lower urinary tract obstruction model of rats was used as a test system. A test substance was orally administered to the lower urinary tract obstruction model repeatedly over 14 days to examine the action on the urination function in the lower urinary tract obstruction model. The lower urinary tract obstruction model is not a benign prostatic hyperplasia model with enlarged prostate.
More specifically, the rats (male, Crl:CD(SD), 8-week-old; Charles River Laboratories Japan, Inc.) were operated to form lower urinary tract obstruction and repeatedly received oral administration of the test substance at a frequency of once a day over 14 days. After the completion of the administration, each rat was subjected to bladder catheterization under anesthesia and cystometry under no anesthesia and was evaluated for the residual urine volume and the urination efficiency.
The test substances and the dosage in the test system (male rats with lower urinary tract obstruction) are as follows. • Solvent group (control group): 0.5 v/v % Polysorbate 80 solution, 10 mL/kg (n=8) • Group A: Compound A, 10 mg/kg (n=12) • Group C: Compound C (dutasteride), 0.5 mg/kg (n=11)

The mark [3] stands for this setting: female rats, lower urinary tract obstruction, vs control group.

In the case of `CC(=O)O[C@]1(C(C)=O)C[C@@H](O)[C@H]2[C@@H]3C=C(Cl)C4=CC(=O)OC[C@]4(C)[C@H]3CC[C@@]21C` [Compound A, 17α-acetoxy-6-chloro-15β-hydroxy-2-oxa-4,6-pregnadiene-3,20-dione], the survival rate entry in series [1] (female lower urinary tract obstruction rats) is given as “no decrease”. Moreover, the “wet weights of the bladder and the kidney” value in series [1] (female rats, lower urinary tract obstruction) is on record as “in the direction of significantly inhibiting the increase”. For the same molecule, in series [1] (female rats, lower urinary tract obstruction, vs control (solvent) group), the residual urine volume result was “significantly decreased”. In addition, in series [1] (setting [3]), the bladder capacity entry was “significantly decreased” and the urination efficiency result was “increased”. Further, the “urination function (the residual urine volume, the urination efficiency)” value in series [2] is recorded as “strong improvement action”.
